Reference: US10675239B2, “Vegetable extract to prevent and treat hair loss” (GIULIANI S.P.A., priority 2017, dated 2020)

Key:
Format in all cases: cell-based, mouse
[1] = tested on: ROS production in the BALB3T3 murine fibroblast cell line; assay: ROS intracellular production (DCFH-DA assay)-BALB3T3; details: 25 μM, 16 h pretreatment, then 1 mM H2O2 90 min; ctr + H2O2 = 100
Description: Study of the Effects of Galeopsis segetum and Galeopsis tetrahit and on ROS Production Using a DCFH-DA-BALB3T3 Assay
The ROS production in the BALB3T3 murine fibroblast cell line was determined by spectrophotometer using the 2,7-dichlorofluorescein-diacetate (DCFH-DA) assay, as described by Tobi et al. (Tobi et al., 2000).
DCFH-DA is a non-fluorescent compound in lipophilic form, able to spread through the cell membrane. Once inside the cell, it is deacetylated by the intracellular esterases to reduced 2,7-dichlorofluorescein (DCFH), which is also non-fluorescent. DCFH, unable to cross again the cell membrane, eventually ends up accumulating in the cells (Curtin et al., 2002). The intracellular ROS reaction leads to the oxidation of 2.7-dichlorofluorescein (DCF) DCFH, a highly fluorescent compound. This fluorescence intensity can be detected with a fluorimeter, allowing estimating the amount of ROS produced in the cells.
[…]
Subsequently, the lysates were transferred in a 96-well black plate and the fluorescence of DCF was read spectrofluorimetrically using a FluoroskanAscent FL Microplate Fluorescence Reader (Thermo Fisher ScientificInc., Waltham, Mass., USA), with excitation and emission wavelengths of 485 and 538 nm respectively. […]

[2] = tested on: BALB3T3 murine fibroblasts stressed with H2O2; assay: MTT with induced oxidative stress-BALB3T3; details: 50 μM, pretreatment, then 1 mM H2O2 90 min; non-stressed ctr = 100, Ctr + H2O2 = 58.43
Description: MTT with Induced Oxidative Stress-BALB3T3
BALB3T3 mouse fibroblasts are one of the validated models for studies of oxidative stress in vitro (Subirade et al., 1995; Kutuk et al., 2004).
Studies conducted in 2005 by Rajapakse and coworkers (2005) highlighted the possibility of exploiting a highly used and versatile method such as that of the MTT assay for the in vitro study antioxidant activity of active compounds. Specifically, through this method it is possible to study the protective effects of these compounds on cells subsequently subjected to oxidative stress. The induction of oxidative stress is carried out by incubation with hydrogen peroxide, an agent that induces the production of oxidative damage in the cells through ROS formation. The possible protective effects can be determined through the assessment of cell viability after oxidative stress of the pre-treated/pre-exposed cells to the active compounds to be tested, in comparison with cells subjected to the same oxidative stress. […]
Once the oxidation stress induction phase was completed, the cell viability of the various samples was evaluated, according to the method described in point 4.1.2 (assay with MTT).
The data were expressed as a percentage of cell viability compared to non-stressed control cells (ctr), according to the following formula: % cell viability/ctr=(Sample Abs/ctr Abs)*100 […]

[3] = tested on: 5 alpha-reductase isoform 2 (SRD5A2); assay: Gene expression of isoform 2 of 5 alpha-reductase (SRD5A2) in BALB3T3 cells by qRT-PCR; details: 0.05 mg/mL, 24 h, relative expression 2^-ΔΔCt vs β-actin, Ctr = 1
Description: Effects of Galeopsis segetum and Galeopsis tetrahit Study on the Activity of 5 Alpha-Reductase (Isoform 2)-BALB3T3
The gene expression of the isoform 2 of 5 alpha-reductase (SRD5A2) in BALB3T3 cells was evaluated by relative quantitative RT-PCR (quantitative reverse transcription polymerase chain reaction-qRT-PCR).
This analysis has foreseen 3 sequential phases: • Total RNA extraction; • Reverse transcription in cDNA; • qRT-PCR.
BALB3T3 murine fibroblasts were seeded in 12-well plates at a density of 0.5*10^6 cells/well and incubated until about 80% confluence was achieved.
Subsequently, the cells were incubated for 24 hours with Galeopsis segetum and Galeopsis tetrahit (vegetable biomass and dry hydro-alcoholic sample) at the following concentrations: 20-50 and 100 μg/ml. […]
At the end of the incubation with the active compounds of interest, cells were washed with PBS (1×) and finally subjected to the RNA extraction procedure. At the end of the extraction, using a spectrophotometer (Jenway UV/VIS MOD: 6715, BS-6715B0), the concentrations in μg/ml of total RNA extracted at the wavelength of 260 nm were calculated. Finally, the integrity of RNA (2 μg/ml) by electrophoretic run on 1% agarose gel was evaluated. […]
The extracted and quantified RNA was diluted to a concentration of 2 μg/ml and retro-transcripted in cDNA. […]
Assuming a 100% amplification efficiency, the 2^−ΔΔCt was calculated.

Row | Compound | % ROS [1] [%] | % cells viability [2] [%] | mRNA SERD5A2 [3]
1 | Cc1c(C)c2c(c(C)c1O)CC[C@@](C)(CCC[C@H](C)CCC[C@H](C)CCCC(C)C)O2 [α-tocopherol] | 39.67 | 78.37 | –
2 | CC(C)(C)NC(=O)[C@H]1CC[C@H]2[C@@H]3CC[C@H]4NC(=O)C=C[C@]4(C)[C@H]3CC[C@]12C [finasteride] | – | – | 0.31
